Test results from patent publication US12559506B2, “Indazole based compounds and associated methods of use” (Arvinas Operations, Inc., priority 2021, dated 2026).

Molecular target: T1, LRRK2 (endogenous, HiBit tagged) (Homo sapiens, UniProt Q5S007)
T1 construct: endogenous in cells; host or cells: HEK293 cells with HiBit knock-in at the endogenous LRRK2 locus, stably expressing firefly luciferase
Assay: Endogenous LRRK2 degradation assay, endogenous gene C-terminally HiBit-tagged in HEK293 cells (Nano-Glo Dual Luciferase)
Type: cell-based
Conditions: endogenous HiBit-tagged LRRK2, HEK293 cells, 24 hours; for Dmax: read-out: **Endogenous WT Dmax (%); for DC50: read-out: *Endogenous WT DC50
Description: Exemplary Assay for Testing LRRK2 Degradation Driven by Exemplary Hetero-Bifunctional Compounds Designed to Target LRRK2
The assay measures the degradation of LRRK2 in cells where the C-terminus (3′) of the endogenous gene has been tagged with a HiBit sequence in HEK293 cells. The cells also express firefly luciferase, expressed from a Cytomegalovirus promoter and introduced into the HiBit tagged cells and stably expressed. The Nano-Glo® Dual Luciferase Reporter Assay System (Promega™, Madison, WI) was utilized.
Day 1—Preparation of Compound and Assay Plates. Two sets of plates were prepared: a triplicate set for the HiBit assay in white 384-well plates and a triplicate set of plate in black 384-well plates for the Alamar Blue cell viability assay. Briefly, the growth media (DMEM+Glutamax-10% fetal bovine serum-1% Penicillin-Streptomicin) from two T128 flasks was aspirated from the flasks. Cells were washed with Dulbecco's Phosphate Buffered Saline (dPBS) and aspirated. Trypsin (3 mL per flask) was added and the flasks were incubated for 2-3 minutes.
Ten mL of OptiMEM-10% fetal bovine-1% penicillin-streptomycin (hereinafter, “OptiMEM media”) was added to the flask and the cells and transferred to a 50 mL conical tube. A cell count (25 ul of cell into Effendorf vial+25 ul of Trypan Blue Stain) was performed and the cell density adjusted to 15,000 cell/45 μl/well (3.33×10^5/mL) in OptiMEM media.
Fourty-five microliters of the cell suspension (15,000 cells) was aliquoted to each well of the white 384-well plate. The plates incubated at room temperature for 10 minutes before being placed in the 37° C.+5% CO2 incubator overnight
Day 2—Compound Treatment. Exemplary compounds were prepared at a 1 mM starting concentration and 1:3 serial dilution for 11 points CRC prepared and stored in the freezer. The Master Compound Plate was thawed overnight at room temperature. DMSO (20 μL) was added into column 24 of the Master Compound Plate for negative control and 20 μL of 300 μM of Compound 4 in column 23 as positive control.
Intermediate Compound Plate with 4% DMSO in OptiMEM Media. DMSO was added to warm OptiMEM media to achieve a 4% DMSO solution (approximately 50 mL/plate). One-hundred microliters of the OptiMEM-4% DMSO was aliquoted to each well of 384-Well Deep Well Microplates.
The Master Compound Plate and the Intermediate Compound Plate were spun down.
One microliter of compound from the Master Compound Plate was transferred into the Intermediate plate (a 1:100 dilution). The diluted mixture was mixed and 5 μL transferred into the assay plate (a 1:10 dilution) for the final starting concentration of 1 μM. The Treated Assay plates were incubated for 24 hours at 37° C.+5% CO2. The Master Compound Plate was sealed and store at room temperature for a second run that was performed within a week.
Day 3—HiBit Assay. Five microliters of Alamar Blue was added to each well of the black 384-well plates. The plates were incubated for 2 hours in the incubator (37° C.+5% CO2) and at room temperature for one hour. Fluorescence of each plate was read on a plated reader for the Alamar Blue viability assay.
One set of white assay plates was warmed to room temperature (45 minute).
The One Glo luciferase mixture was prepared. The media from white 384-well assay plates was aspirated. Twenty-five μL of the One Glo luciferase mixture was added to each well of the assay plates. The plates were incubated on the bench (room temperature) for 45 minutes, including 10 minutes of shaking at 700 rpm. The luminescence of each plate was read on a plate reader.
1:100 DLR substrate and 1:100 LgBiT Protein dilution were added to the Promega Stop and Glo buffer and mixed just before addition to assay plates. Twenty-five microliters of Stop and Glo mixture was added to each well. Assay plates incubated for at least 45 minutes, including 10 minutes of shaking at 700 rpm. The luminescence of each plate was read on a plate reader.
Analysis of LRRK2 HiBit Screening assays. […]

T1 sequence (Q5S007 whole entry): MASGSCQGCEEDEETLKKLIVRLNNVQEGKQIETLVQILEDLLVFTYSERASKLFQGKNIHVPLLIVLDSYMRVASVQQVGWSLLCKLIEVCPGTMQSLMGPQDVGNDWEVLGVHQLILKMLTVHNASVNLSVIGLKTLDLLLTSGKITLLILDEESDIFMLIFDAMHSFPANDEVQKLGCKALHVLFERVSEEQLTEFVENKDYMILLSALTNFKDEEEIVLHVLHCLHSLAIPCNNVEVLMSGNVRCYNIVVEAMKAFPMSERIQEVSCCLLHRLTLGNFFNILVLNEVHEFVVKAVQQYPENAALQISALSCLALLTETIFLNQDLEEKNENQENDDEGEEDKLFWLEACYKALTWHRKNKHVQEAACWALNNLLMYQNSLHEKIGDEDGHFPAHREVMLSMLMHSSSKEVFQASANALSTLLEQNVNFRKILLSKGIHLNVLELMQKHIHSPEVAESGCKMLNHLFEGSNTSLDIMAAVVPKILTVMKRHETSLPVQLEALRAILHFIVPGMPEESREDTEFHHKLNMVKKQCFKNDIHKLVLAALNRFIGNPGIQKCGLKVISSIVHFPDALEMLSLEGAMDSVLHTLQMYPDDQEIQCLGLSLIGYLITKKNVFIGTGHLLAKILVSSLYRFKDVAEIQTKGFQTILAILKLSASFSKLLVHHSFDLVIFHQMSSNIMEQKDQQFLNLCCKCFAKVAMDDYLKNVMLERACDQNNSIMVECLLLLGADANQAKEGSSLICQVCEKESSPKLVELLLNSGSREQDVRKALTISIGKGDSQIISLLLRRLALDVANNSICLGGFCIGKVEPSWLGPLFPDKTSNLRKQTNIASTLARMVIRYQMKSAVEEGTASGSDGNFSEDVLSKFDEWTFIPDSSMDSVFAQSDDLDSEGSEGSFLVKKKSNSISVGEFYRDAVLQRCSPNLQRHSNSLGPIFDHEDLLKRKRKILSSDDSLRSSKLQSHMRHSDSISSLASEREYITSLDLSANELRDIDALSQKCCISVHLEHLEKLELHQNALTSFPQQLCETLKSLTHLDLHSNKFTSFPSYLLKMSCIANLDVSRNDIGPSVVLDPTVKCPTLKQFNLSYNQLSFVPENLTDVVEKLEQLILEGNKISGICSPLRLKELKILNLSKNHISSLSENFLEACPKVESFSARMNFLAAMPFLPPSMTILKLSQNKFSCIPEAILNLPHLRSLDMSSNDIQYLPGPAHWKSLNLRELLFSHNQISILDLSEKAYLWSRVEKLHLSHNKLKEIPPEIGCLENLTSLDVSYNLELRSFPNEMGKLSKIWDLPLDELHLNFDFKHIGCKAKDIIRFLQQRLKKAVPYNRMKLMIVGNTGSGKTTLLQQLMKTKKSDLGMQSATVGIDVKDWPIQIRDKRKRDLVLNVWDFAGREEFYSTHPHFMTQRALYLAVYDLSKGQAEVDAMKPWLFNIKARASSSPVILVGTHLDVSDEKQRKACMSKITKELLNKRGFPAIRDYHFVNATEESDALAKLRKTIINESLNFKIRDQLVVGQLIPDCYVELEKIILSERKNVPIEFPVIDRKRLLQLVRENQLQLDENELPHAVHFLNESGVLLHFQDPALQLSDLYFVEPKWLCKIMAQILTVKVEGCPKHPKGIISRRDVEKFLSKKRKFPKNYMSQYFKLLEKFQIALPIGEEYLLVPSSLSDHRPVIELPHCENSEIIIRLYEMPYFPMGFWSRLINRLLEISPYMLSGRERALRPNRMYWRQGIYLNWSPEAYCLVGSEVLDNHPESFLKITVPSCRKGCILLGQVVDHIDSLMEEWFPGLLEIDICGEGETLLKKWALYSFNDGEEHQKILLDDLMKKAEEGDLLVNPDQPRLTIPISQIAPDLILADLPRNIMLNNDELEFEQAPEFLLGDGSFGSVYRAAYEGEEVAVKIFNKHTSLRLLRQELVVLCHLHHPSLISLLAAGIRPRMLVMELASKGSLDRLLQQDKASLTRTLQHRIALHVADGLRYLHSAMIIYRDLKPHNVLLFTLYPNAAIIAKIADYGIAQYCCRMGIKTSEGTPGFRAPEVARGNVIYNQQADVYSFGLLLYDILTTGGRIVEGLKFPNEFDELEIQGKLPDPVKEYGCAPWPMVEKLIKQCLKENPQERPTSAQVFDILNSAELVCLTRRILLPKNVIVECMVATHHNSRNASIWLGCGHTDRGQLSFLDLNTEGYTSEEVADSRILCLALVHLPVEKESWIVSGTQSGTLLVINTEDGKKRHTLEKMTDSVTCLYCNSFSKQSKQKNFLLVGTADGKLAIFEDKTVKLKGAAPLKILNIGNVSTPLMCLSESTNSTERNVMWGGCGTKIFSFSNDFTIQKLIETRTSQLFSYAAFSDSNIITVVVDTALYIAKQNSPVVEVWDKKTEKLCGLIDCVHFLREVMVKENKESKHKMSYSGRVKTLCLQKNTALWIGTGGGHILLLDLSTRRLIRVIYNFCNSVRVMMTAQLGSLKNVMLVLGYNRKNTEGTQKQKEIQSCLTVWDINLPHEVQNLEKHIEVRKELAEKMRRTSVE

Dmax	DC50	SMILES
≥ 70%	< 0.01 µM	CC1(Oc2ccc3[nH]nc(-c4cc(N5CCC(CN6CCC(F)(CN7CCN(c8cc9c(cc8F)C(=O)N(C8CCC(=O)NC8=O)C9)CC7)CC6)CC5)ncn4)c3c2)CC1 (centres unmarked) [Compound 188, 3-[6-fluoro-5-[4-[[4-fluoro-1-[[1-[6-[5-(1-methylcyclopropoxy)-1H-indazol-3-yl]pyrimidin-4-yl]-4-piperidyl]methyl]-4-piperidyl]methyl]piperazin-1-yl]-1-oxo-isoindolin-2-yl]piperidine-2,6-dione]
≥ 70%	< 0.01 µM	CC1(Oc2cc3c(-c4cc(N5CCN(CC6(F)CCN(CC7CCN(c8ccc9c(c8F)CN(C8CCC(=O)NC8=O)C9=O)CC7)CC6)CC5)ncn4)n[nH]c3cc2F)CC1 (centres unmarked) [Compound 189, 3-[4-fluoro-5-[4-[[4-fluoro-4-[[4-[6-[6-fluoro-5-(1-methylcyclopropoxy)-1H-indazol-3-yl]pyrimidin-4-yl]piperazin-1-yl]methyl]-1-piperidyl]methyl]-1-piperidyl]-1-oxo-isoindolin-2-yl]piperidine-2,6-dione]
≥ 70%	< 0.01 µM	CC1(Oc2ccc3[nH]nc(-c4cc(N5CCC(CN6CCC(F)(CN7CCN(c8ccc9c(c8F)CN(C8CCC(=O)NC8=O)C9=O)CC7)CC6)CC5)ncn4)c3c2)CC1 (centres unmarked) [Compound 190, 3-[4-fluoro-5-[4-[[4-fluoro-1-[[1-[6-[5-(1-methylcyclopropoxy)-1H-indazol-3-yl]pyrimidin-4-yl]-4-piperidyl]methyl]-4-piperidyl]methyl]piperazin-1-yl]-1-oxo-isoindolin-2-yl]piperidine-2,6-dione]
≥ 70%	< 0.01 µM	CC1(Oc2cc3c(-c4cc(N5CCC(CN6CCN(CC7CCN(c8cc9c(cc8F)C(=O)N(C8CCC(=O)NC8=O)C9)CC7)CC6)CC5)ncn4)n[nH]c3cn2)CC1 (centres unmarked) [Compound 191, 3-[6-fluoro-5-[4-[[4-[[1-[6-[5-(1-methylcyclopropoxy)-1H-pyrazolo[3,4-c]pyridin-3-yl]pyrimidin-4-yl]-4-piperidyl]methyl]piperazin-1-yl]methyl]-1-piperidyl]-1-oxo-isoindolin-2-yl]piperidine-2,6-dione]
≥ 70%	< 0.01 µM	C[C@H]1CN(c2cc(-c3n[nH]c4cc(F)c(OC5(C)CC5)cc34)ncn2)CCN1CC1(F)CCN(CC2CCN(c3ccc4c(c3F)CN(C3CCC(=O)NC3=O)C4=O)CC2)CC1 (stereo partly drawn) [Compound 192, 3-[4-fluoro-5-[4-[[4-fluoro-4-[[(2S)-4-[6-[6-fluoro-5-(1-methylcyclopropoxy)-1H-indazol-3-yl]pyrimidin-4-yl]-2-methyl-piperazin-1-yl]methyl]-1-piperidyl]methyl]-1-piperidyl]-1-oxo-isoindolin-2-yl]piperidine-2,6-dione]
≥ 70%	< 0.01 µM	CC1(Oc2cc3c(-c4cc(N5CCC(CN6CCC(F)(CN7CCN(c8cc9c(cc8F)C(=O)N(C8CCC(=O)NC8=O)C9)CC7)CC6)CC5)ncn4)[nH]nc3cc2F)CC1 (centres unmarked) [Compound 193, 3-[6-fluoro-5-[4-[[4-fluoro-1-[[1-[6-[6-fluoro-5-(1-methylcyclopropoxy)-2H-indazol-3-yl]pyrimidin-4-yl]-4-piperidyl]methyl]-4-piperidyl]methyl]piperazin-1-yl]-1-oxo-isoindolin-2-yl]piperidine-2,6-dione]
≥ 70%	< 0.01 µM	COc1cc2c(cc1N1CCC(CN3CCN(CC4CCN(c5cc(-c6n[nH]c7ccc(OC8(C)CC8)cc67)ncn5)CC4)CC3)CC1)CN(C1CCC(=O)NC1=O)C2=O (centres unmarked) [Compound 194, 3-[6-methoxy-5-[4-[[4-[[1-[6-[5-(1-methylcyclopropoxy)-1H-indazol-3-yl]pyrimidin-4-yl]-4-piperidyl]methyl]piperazin-1-yl]methyl]-1-piperidyl]-1-oxo-isoindolin-2-yl]piperidine-2,6-dione]
≥ 70%	< 0.01 µM	CC1(Oc2cc3c(-c4cc(N5CCN(CC6(F)CCN(CC7CCN(c8cc9c(cc8F)C(=O)N(C8CCC(=O)NC8=O)C9)CC7)CC6)CC5)ncn4)[nH]nc3cc2F)CC1 (centres unmarked) [Compound 195, 3-[6-fluoro-5-[4-[[4-fluoro-4-[[4-[6-[6-fluoro-5-(1-methylcyclopropoxy)-2H-indazol-3-yl]pyrimidin-4-yl]piperazin-1-yl]methyl]-1-piperidyl]methyl]-1-piperidyl]-1-oxo-isoindolin-2-yl]piperidine-2,6-dione]
≥ 70%	< 0.01 µM	C[C@H]1CN(c2cc(-c3[nH]nc4cc(F)c(OC5(C)CC5)cc34)ncn2)CCN1CC1(F)CCN(CC2CCN(c3cc4c(cc3F)C(=O)N(C3CCC(=O)NC3=O)C4)CC2)CC1 (stereo partly drawn) [Compound 197, 3-(6-fluoro-5-{4-[(4-fluoro-4-{[(2S)-4-{6-[6-fluoro-5-(1-methylcyclopropoxy)-2H-indazol-3-yl]pyrimidin-4-yl}-2-methylpiperazin-1-yl]methyl}piperidin-1-yl)methyl]piperidin-1-yl}-1-oxo-2,3-dihydro-1H-isoindol-2-yl)piperidine-2,6-dione]
≥ 70%	< 0.01 µM	COc1cc2c(cc1N1CCC(CN3CCC(F)(CN4CCN(c5cc(-c6[nH]nc7ccc(OC8(C)CC8)cc67)ncn5)CC4)CC3)CC1)CN(C1CCC(=O)NC1=O)C2=O (centres unmarked) [Compound 198, 3-[5-[4-[[4-fluoro-4-[[4-[6-[5-(1-methylcyclopropoxy)-2H-indazol-3-yl]pyrimidin-4-yl]piperazin-1-yl]methyl]-1-piperidyl]methyl]-1-piperidyl]-6-methoxy-1-oxo-isoindolin-2-yl]piperidine-2,6-dione]
≥ 70%	< 0.01 µM	CC1(Oc2cc3c(-c4cc(N5CCC(CN6CCC(F)(CN7CCN(c8ccc9c(c8F)CN(C8CCC(=O)NC8=O)C9=O)CC7)CC6)CC5)ncn4)n[nH]c3cc2F)CC1 (centres unmarked) [Compound 199, 3-{4-fluoro-5-[4-({4-fluoro-1-[(1-{6-[6-fluoro-5-(1-methylcyclopropoxy)-1H-indazol-3-yl]pyrimidin-4-yl}piperidin-4-yl)methyl]piperidin-4-yl}methyl)piperazin-1-yl]-1-oxo-2,3-dihydro-1H-isoindol-2-yl}piperidine-2,6-dione]
≥ 70%	< 0.01 µM	CC1(Oc2ccc3n[nH]c(-c4cc(N5CC(OCC6(F)CCN(CC7CCN(c8ccc9c(c8F)CN(C8CCC(=O)NC8=O)C9=O)CC7)CC6)C5)ncn4)c3c2)CC1 (centres unmarked) [Compound 200, 3-[4-fluoro-5-[4-[[4-fluoro-4-[[1-[6-[5-(1-methylcyclopropoxy)-2H-indazol-3-yl]pyrimidin-4-yl]azetidin-3-yl]oxymethyl]-1-piperidyl]methyl]-1-piperidyl]-1-oxo-isoindolin-2-yl]piperidine-2,6-dione]
≥ 70%	< 0.01 µM	CC1(Oc2cc3c(-c4cc(N5CCC(CN6CCN(CC7CCN(c8ccc9c(c8F)CN(C8CCC(=O)NC8=O)C9=O)CC7)CC6)CC5)ncn4)n[nH]c3cn2)CC1 (centres unmarked) [Compound 201, 3-(4-fluoro-5-(4-((4-((1-(6-(5-(1-methylcyclopropoxy)-1H-pyrazolo[3,4-c]pyridin-3-yl)pyrimidin-4-yl)piperidin-4-yl)methyl)piperazin-1-yl)methyl)piperidin-1-yl)-1-oxoisoindolin-2-yl)piperidine-2,6-dione]
